# Measurements published in patent US12708116B2, “Herbicidal compositions comprising 2,4-D” (BASF SE, priority 2023, dated 2026).
# Legend:
# Assay in all cases: Post-emergence application in field trials
# ECHCG = assay type: in vivo, Echinochloa crus-galli
# ZEAMX = details: growth stage 15-16
# HORVW = details: growth stage 23-29, height 20-25 cm
# SETVE = details: Example 6, g ai/ha A-1 12.5, B-5 1066, C-11 400, growth stage 21-23, height 10-15 cm
# DATST = details: Example 6; 21 DAT; g ai/ha A-1 12.5, B-5 1066, C-11 400
# DIGSA = system: DIGSA
# CYPES = details: 21 DAT, water volume 140 l/ha
# SETVI = assay type: in vivo, Setaria viridis; details: 15 DAT; g ai/ha A-1 12.5, B-5 1066, C-10 840; growth stage 13-19; height 2-18 cm; water volume 140 l/ha
# AMAPA = details: 14 DAT, growth stage 12-24, height 5-30 cm, water volume 140 l/ha
# [1] = Example 9, 28 DAT, g ai/ha A-1 12.5, B-4 1066, C-12 252, growth stage 23-30, height 15-20 cm
# [2] = Example 9, 28 DAT, g ai/ha A-1 12.5, B-4 1066, C-12 252, height 50-60 cm
# [3] = Example 9, 21 DAT, g ai/ha A-1 12.5, B-4 1066, C-12 252
# [4] = Example 7, 28 DAT, g ai/ha A-1 12.5, B-4 1066, C-11 400, growth stage 23-30, height 15-20 cm
# [5] = Example 7, 28 DAT, g ai/ha A-1 12.5, B-4 1066, C-11 400, height 50-60 cm
# [6] = Example 11, 21 DAT, g ai/ha A-1 12.5, B-4 1066, C-4 12.5, height 50-60 cm
# [7] = Example 7, 28 DAT, g ai/ha A-1 12.5, B-4 1066, C-11 400
# [8] = Example 11, 21 DAT, g ai/ha A-1 12.5, B-4 1066, C-4 12.5
compound,measurement,setting,value
"CP(=O)(O)CC[C@H](N)C(=O)O.N [C-12, glufosinate-P-ammonium]",% Herbicidal activity,"ECHCG; Example 8, 7 DAT, g ai/ha A-1 12.5, B-5 1066, C-12 252, growth stage 23-30, height 15-20 cm",50%
same,% Herbicidal activity,"ECHCG; Example 8, 21 DAT, g ai/ha A-1 12.5, B-5 1066, C-12 252, growth stage 23-30, height 15-20 cm",70%
same,% Herbicidal activity,"ECHCG; Example 8, 28 DAT, g ai/ha A-1 12.5, B-5 1066, C-12 252, growth stage 23-30, height 15-20 cm",60%
same,% Herbicidal activity,ECHCG; [1],60%
same,% Herbicidal activity,"ZEAMX; Example 8, 28 DAT, g ai/ha A-1 12.5, B-5 1066, C-12 252, height 50-60 cm",70%
same,% Herbicidal activity,ZEAMX; [2],60%
same,% Herbicidal activity,"HORVW; Example 8, 21 DAT, g ai/ha A-1 12.5, B-5 1066, C-12 252",20%
same,% Herbicidal activity,HORVW; [3],60%
"CNC.O=C(O)COc1ccc(Cl)cc1Cl [B-4, 2,4-D-dimethylammonium]",% Herbicidal activity,ECHCG; [4],0%
same,% Herbicidal activity,ECHCG; [1],0%
same,% Herbicidal activity,"ZEAMX; Example 5, 21 DAT, g ai/ha A-1 12.5, B-4 1066, height 50-60 cm",0%
same,% Herbicidal activity,ZEAMX; [5],0%
same,% Herbicidal activity,ZEAMX; [2],0%
same,% Herbicidal activity,ZEAMX; [6],0%
same,% Herbicidal activity,"HORVW; Example 5, 7 DAT, g ai/ha A-1 12.5, B-4 1066",0%
same,% Herbicidal activity,HORVW; [7],0%
same,% Herbicidal activity,HORVW; [3],0%
same,% Herbicidal activity,HORVW; [8],0%
"CP(=O)(O)CCC(N)C(=O)O (centres unmarked) [C-11, glufosinate-ammonium]",% Herbicidal activity,"ECHCG; Example 6, 7 DAT, g ai/ha A-1 12.5, B-5 1066, C-11 400, growth stage 23-30, height 15-20 cm",30%
same,% Herbicidal activity,"ECHCG; Example 6, 28 DAT, g ai/ha A-1 12.5, B-5 1066, C-11 400, growth stage 23-30, height 15-20 cm",70%
same,% Herbicidal activity,ECHCG; [4],60%
same,% Herbicidal activity,SETVE; 7 DAT,55%
same,% Herbicidal activity,SETVE; 21 DAT,40%
same,% Herbicidal activity,DATST,50%
same,% Herbicidal activity,"DIGSA; 21 DAT, g ai/ha A-1 12.5, B-5 1066, C-11 655, height 2-8 cm, water volume 140 l/ha",49%
same,% Herbicidal activity,"DIGSA; 21 DAT, g ai/ha A-1 25, B-5 1066, C-11 655, height 2-8 cm, water volume 140 l/ha",49%
same,% Herbicidal activity,"DIGSA; 21 DAT, g ai/ha A-1 50, B-5 1066, C-11 655, height 2-8 cm, water volume 140 l/ha",49%
same,% Herbicidal activity,"DIGSA; Example 6, 7 DAT, g ai/ha A-1 12.5, B-5 1066, C-11 400, growth stage 21-22, height 15-20 cm",25%
same,% Herbicidal activity,"DIGSA; Example 6, 21 DAT, g ai/ha A-1 12.5, B-5 1066, C-11 400, growth stage 21-22, height 15-20 cm",20%
same,% Herbicidal activity,"ZEAMX; Example 6, 7 DAT, g ai/ha A-1 12.5, B-5 1066, C-11 400, height 25-30 cm",40%
same,% Herbicidal activity,"ZEAMX; Example 6, 28 DAT, g ai/ha A-1 12.5, B-5 1066, C-11 400, height 50-60 cm",70%
same,% Herbicidal activity,ZEAMX; [5],40%
same,% Herbicidal activity,"HORVW; Example 6, 28 DAT, g ai/ha A-1 12.5, B-5 1066, C-11 400",30%
same,% Herbicidal activity,HORVW; [7],10%
same,% Herbicidal activity,"CYPES; g ai/ha A-1 12.5, B-5 1066, C-11 655",18%
same,% Herbicidal activity,"CYPES; g ai/ha A-1 50, B-5 1066, C-11 655",18%
"O=C(O)CNCP(=O)(O)O [C-10, glyphosate-potassium]",% Herbicidal activity,"ECHCG; 13 DAT, g ai/ha A-1 12.5, B-5 1066, C-10 840, growth stage 21-26, height 15-30 cm, water volume 187 l/ha",90%
same,% Herbicidal activity,"ECHCG; 13 DAT, g ai/ha A-1 25, B-5 1066, C-10 840, growth stage 21-26, height 15-30 cm, water volume 187 l/ha",90%
same,% Herbicidal activity,"ECHCG; 13 DAT, g ai/ha A-1 50, B-5 1066, C-10 840, growth stage 21-26, height 15-30 cm, water volume 187 l/ha",90%
same,% Herbicidal activity,SETVI,93%
same,% Herbicidal activity,"DIGSA; 15 DAT, g ai/ha A-1 12.5, B-5 1066, C-10 840, growth stage 13-19, height 2-13 cm, water volume 140 l/ha",93%
same,% Herbicidal activity,"AMAPA; g ai/ha A-1 12.5, B-5 1066, C-10 840",22%
same,% Herbicidal activity,"AMAPA; g ai/ha A-1 25, B-5 1066, C-10 840",22%
"C#CCN1C(=O)C(F)(F)Oc2cc(F)c(-n3c(=O)n(C)c(=S)n(C)c3=O)cc21 [C-4, trifludimoxazin]",% Herbicidal activity,"ECHCG; Example 10, 21 DAT, g ai/ha A-1 12.5, B-5 1066, C-4 12.5, growth stage 23-30, height 15-20 cm",30%
same,% Herbicidal activity,ZEAMX; [6],30%
same,% Herbicidal activity,"HORVW; Example 10, 21 DAT, g ai/ha A-1 12.5, B-5 1066, C-4 12.5",30%
same,% Herbicidal activity,HORVW; [8],20%
